Values of other authors in patent US8084444B2, “Treatment of dermatitis with dehydroepiandrosterone-glucocorticoid combinations” (RxDino, LLC, priority 2004, dated 2011).

Conditions: equivalent in glucocorticoid potency

SMILES | Approximate Glucocorticoid Dose Equivalent [mg]
C[C@]12CCC(=O)C=C1CC[C@@H]1[C@@H]2[C@@H](O)C[C@@]2(C)[C@H]1CC[C@]2(O)C(=O)CO [Hydrocortisone] | ~20
C[C@]12CCC(=O)C=C1CC[C@@H]1[C@@H]2C(=O)C[C@@]2(C)[C@H]1CC[C@]2(O)C(=O)CO [Cortisone] | ~25
C[C@]12C=CC(=O)C=C1CC[C@@H]1[C@@H]2[C@@H](O)C[C@@]2(C)[C@H]1CC[C@]2(O)C(=O)CO [Prednisolone] | ~5
C[C@]12C=CC(=O)C=C1CC[C@H]1[C@@H]3C[C@@H](O)[C@](O)(C(=O)CO)[C@@]3(C)C[C@H](O)[C@@]12F [Triamcinolone] | ~0.8
